# Measurements reported in BindingDB's records for doi:10.1016/j.bmcl.2003.11.074 (Kaohsiung Medical University, 2004).
# How the values were obtained:
# Lysozyme C-1 = biological target: T1, Lysozyme C-1 (Rattus norvegicus, UniProt P00697); test: ChEBML_100187
# T1 sequence (P00697 whole entry): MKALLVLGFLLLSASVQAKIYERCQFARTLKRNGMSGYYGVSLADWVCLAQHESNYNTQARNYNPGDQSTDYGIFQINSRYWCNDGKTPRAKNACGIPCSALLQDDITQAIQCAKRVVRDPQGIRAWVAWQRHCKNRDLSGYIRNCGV
# Source text: Inhibitory effect of compound on the release of lysozyme in rat neutrophils stimulated with fMLP/CB
# [1] = Inhibitory effect of compound on the release of Beta-glucuronidase in rat neutrophils stimulated with fMLP/CB
SMILES,IC50 (Lysozyme C-1),IC50 [1]
O=c1c(O)c(-c2ccc(O)cc2)oc2cc(OC3O[C@H](CO)[C@@H](O)[C@H](O)[C@H]3O)cc(O)c12 (stereo not given in full),> 30 µM,> 30 µM
"COc1cc(O)ccc1-c1coc2cc(O)cc(O)c2c1=O [5,7-Dihydroxy-3-(4-hydroxy-2-methoxy-phenyl)-chromen-4-one]",> 30 µM,> 30 µM
"O=c1cc(-c2ccc(O)cc2)oc2cc(O)cc(O)c12 [Naringenin, 18]",17.7 µM,

# Now from value to compound:
IC50 (Lysozyme C-1),IC50 [1],SMILES
9 µM,,CN1CCN(CCCN2c3ccccc3Sc3ccc(C(F)(F)F)cc32)CC1
> 30 µM,> 30 µM,"C[C@](O)(CO)c1cc2c3c(ccc2o1)[C@@H]1COc2cc(O)ccc2[C@@H]1O3 [2-((11bR,12R)-9-Hydroxy-5b,11b-dihydro-6H-3,7,12-trioxa-benzo[a]cyclopenta[i]fluoren-2-yl)-propane-1,2-diol]"
9.7 µM,,"O=c1c(-c2ccc(O)cc2O)coc2cc(O)cc(O)c12 [3-(2,4-Dihydroxy-phenyl)-5,7-dihydroxy-chromen-4-one]"
> 30 µM,,O=c1cc(-c2ccc(O)cc2)oc2cc(O)ccc12 [7-hydroxy-2-(4-hydroxyphenyl)-4H-chromen-4-one]
